Measurements published in patent US20230348376A1 (TEIJIN PHARMA LIMITED, priority 2020, published 2023).

What was measured:
[1] = tested on: rat oligodendrocyte progenitor cells; test: Promotive activity of rat oligodendrocyte progenitor cell differentiation-1 (MBP gene expression, mRNA); type: cell-based; settings: Rattus norvegicus, Oligodendrocyte progenitor cell, 96 h, read-out: promotive activity at T3 base (MBP gene expression; DMSO 0%, T3 100%), 4 days, MBP/β actin mRNA
Experimental: Regarding vitamin D derivatives, which was confirmed to act on the vitamin D receptor (VDR) in Example 352, the promotive activity of oligodendrocyte progenitor cell (OPC) differentiation was evaluated by MBP gene expression (mRNA).
A forebrain obtained from SD rat (Charles River Japan, 1 day old) was crushed with 70 μm Cell Strainer (Falcon #352350), and a cell suspension was prepared by collecting the cells in oligodendrocyte progenitor cell separation medium (20% FBS/2 mM Glutamax (Gibco #35050-061)/i mM sodium pyruvate (Gibco #11360-070)/1% penicillin-streptomycin (Invitrogen #15140-122)/DMEM (Gibco #11960-044)). The cell suspension was seeded in a poly-D-lysine coated T75 flask (Thermo Fisher Scientific #132704) and cultured for about 2 weeks. After culturing, the flask was shaken using a rotary shaker ([…] #WB-101SRC) for about 1 hour (37° C., 100 rpm), and the supernatant was discarded to remove microglia. Subsequently, oligodendrocyte progenitor cell separation medium was added to the flask, and the mixture was similarly shaken for about 22 hours (37° C., 200 rpm), and the supernatant was collected to prepare oligodendrocyte progenitor cells.
The oligodendrocyte progenitor cell prepared was suspended in a differentiation medium (2% B27 (Thermo Fisher Scientific, Inc. #17504-044)/1% penicillin-streptomycin (Invitrogen Corporation #15140-122)/10 ng/mL CNTF (PeproTech Inc. #AF-450-13)/DMEM (Gibco #11960-044)), and seeded on a 96-well plate coated with poly-L-ornithine (FUJIFILM Wako Pure Chemical Corporation #163-27421) under the condition of 0.65×10^4 cells/well, and on a 384-well plate under the condition of 2×10^3 cells/well using an automatic dispensing system (LABCYTE #Echo555). […] After culturing, the cells seeded on the 96-well plate were subjected to immunostaining against MBP using following methods: fixation (4% paraformaldehyde solution, 30 minutes, room temperature), PBS washing, membrane permeation treatment (0.1% Trion X-100 (SIGMA #X100-100ML)/PBS, 3 minutes, room temperature), blocking (3% BSA (SIGMA #A9647-10G)/PBS, 1 hour, room temperature), primary antibody reaction (MBP antibody (abcam plc #ab40390), 2.5 μg/mL, 4° C., 24 hours), PBS washing, secondary antibody reaction (Alexa488 anti-rabbit IgG (Thermo Fisher Scientific, Inc. #A-11034), 5 μg/mL, room temperature, 1 hour), PBS washing, and nuclear staining (Hoechst33342 (DOJINDO #NU043), 10 μg/mL, room temperature, 5 minutes). Subsequently, images of each well were acquired using a fluorescence microscope (KEYENCE CORPORATION #BZ-X800), the number of MBP-positive cells and Hoechst 33342-positive cells were measured using an image analysis application (KEYENCE CORPORATION #BZ-X800 Analyzer), and then the ratio (the number of MBP-positive cells/the number of Hoechst33342-positive cells) was calculated. The cells seeded on the 384-well plate were subjected to real-time PCR using Cells-to-CT 1-Step TaqMan Kit (Thermo Fisher Scientific, Inc. #A25602) and QuantStudio 12K Flex Real-Time PCR System (Thermo Fisher Scientific, Inc. #4472380). The experiment was performed in accordance with the protocol attached to the kit. MBP (Thermo Fisher Scientific, Inc. #Assay ID Rn00690616_ml) and β actin (Thermo Fisher Scientific, Inc. #Assay ID Rn00667869_ml) were used as primers, and the expression levels of each were measured and the ratio (MBP/β actin) was calculated.

human VDR = target: T1, human VDR (Homo sapiens, UniProt P11473); test: Evaluation of VDR transcription activity in human osteoblasts (HOS cells), luciferase reporter; settings: Activity (EC50, VDR transcription activity), HOS cells transfected with human VDR, human RXRα and DR3 luciferase reporter; 21 hours
T1 sequence (P11473 1-427): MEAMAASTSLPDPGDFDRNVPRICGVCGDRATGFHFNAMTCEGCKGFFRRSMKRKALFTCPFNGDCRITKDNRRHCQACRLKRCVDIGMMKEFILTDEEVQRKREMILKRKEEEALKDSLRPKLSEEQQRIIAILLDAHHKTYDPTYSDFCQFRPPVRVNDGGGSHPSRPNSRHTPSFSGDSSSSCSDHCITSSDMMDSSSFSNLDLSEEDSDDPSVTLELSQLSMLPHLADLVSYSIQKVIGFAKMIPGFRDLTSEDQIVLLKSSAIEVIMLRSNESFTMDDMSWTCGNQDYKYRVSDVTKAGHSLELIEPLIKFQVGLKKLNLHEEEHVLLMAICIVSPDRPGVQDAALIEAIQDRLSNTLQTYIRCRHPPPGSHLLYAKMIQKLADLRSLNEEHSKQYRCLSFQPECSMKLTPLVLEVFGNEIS
T1 sequence (P19793 1-462 partner): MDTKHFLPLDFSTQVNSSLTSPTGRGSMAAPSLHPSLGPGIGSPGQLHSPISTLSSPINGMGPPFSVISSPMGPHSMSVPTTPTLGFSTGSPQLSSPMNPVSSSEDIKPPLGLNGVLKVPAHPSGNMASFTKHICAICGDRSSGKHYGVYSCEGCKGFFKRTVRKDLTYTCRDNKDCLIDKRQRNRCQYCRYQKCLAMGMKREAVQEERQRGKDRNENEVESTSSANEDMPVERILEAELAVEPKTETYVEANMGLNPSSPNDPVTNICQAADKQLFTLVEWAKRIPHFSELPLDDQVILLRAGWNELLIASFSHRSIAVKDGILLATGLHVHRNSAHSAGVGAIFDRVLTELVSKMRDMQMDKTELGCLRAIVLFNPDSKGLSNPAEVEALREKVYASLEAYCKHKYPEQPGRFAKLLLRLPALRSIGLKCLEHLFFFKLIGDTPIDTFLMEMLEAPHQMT

[2] = tested on: rat oligodendrocyte progenitor cells; test: Promotive activity of rat oligodendrocyte progenitor cell differentiation-2 (immunostaining of MBP); type: cell-based; settings: vitamin D derivative 2 μM, T3 30 nM, 4 days
Procedure, shortened: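 Rat OPCs prepared by shaking in separation medium about 22 h at 37 °C, 200 rpm, and collecting the supernatant.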

[3] = Evaluation of brain penetration in mice (blood and brain concentration at brain Cmax); type: in vivo, mouse; settings: 1 mg/kg single oral dose, C57BL/6J mice; for Concentration in blood (mean ± SD) at brain Cmax / Concentration in brain (mean ± SD) at brain Cmax: n=3; for Kp: male, C57BL/6J, mouse, brain/plasma, po, 1 mg/kg, read-out: Concentration in brain/in blood ratio at brain Cmax
Procedure, shortened: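 Male C57BL/6J mice (8 weeks, n=3) dosed orally once at 1 […] mg/kg; plasma and brain collected at 0.25, 0.5, 1, 2, 4 and 8 h. Compound extracted with acetonitrile from brain homogenate and plasma, quantified by LC/MS/MS.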

EC50 (human VDR) [nM]	Concentration in blood (mean ± SD) at brain Cmax [3] [nM]	Concentration in brain (mean ± SD) at brain Cmax [3] [pmol/g]	Kp [3]	Concentration in brain/in blood ratio at brain Cmax [3]	SMILES	activation at 1 µM [1] [%]	Mean (number of MBP-positive cells/number of Hoechst33342-positive cells) ([2]; Test 1)	Mean (number of MBP-positive cells/number of Hoechst33342-positive cells) ([2]; Test 2)
					C=C1[C@H](O)CC(=C/C=C2\CCC[C@]3(C)[C@@H]([C@H](C)CCN4C[C@@H](C)OC[C@@H]4C)CC[C@@H]23)C[C@H]1O [Compound D038, (1R,3R)-5-(2-((1R,3aS,7aR,E)-1-((R)-4-((2R,5S)-2,5-dimethylmorpholino)butan-2-yl)-7a-methyloctahydro-4H-inden-4-ylidene)ethylidene)-2-methylenecyclohexane-1,3-diol]	≥ 20		
10 to 100	676 ± 175	410 ± 23	0.61		C=C1/C(=C\C=C2/CCC[C@]3(C)[C@@H]([C@H](C)CN4CC[C@H](C(F)F)C4)CC[C@@H]23)C[C@@H](O)C[C@@H]1O [Compound B020, (1R,3S,Z)-5-(2-((1R,3aS,7aR,E)-1-((S)-1-((S)-3-(difluoromethyl)pyrrolidin-1-yl)propan-2-yl)-7a-methyloctahydro-4H-inden-4-ylidene)ethylidene)-4-methylenecyclohexane-1,3-diol]		0.38	
10 to 100	88 ± 19	74 ± 17	0.84		C=C1/C(=C\C=C2/CCC[C@]3(C)[C@@H]([C@H](C)CN4CC[C@@H](CC(F)F)C4)CC[C@@H]23)C[C@@H](O)C[C@@H]1O [Compound B037, (1R,3S,Z)-5-(2-((1R,3aS,7aR,E)-1-((S)-1-((S)-3-(2,2-difluoroethyl)pyrrolidin-1-yl)propan-2-yl)-7a-methyloctahydro-4H-inden-4-ylidene)ethylidene)-4-methylenecyclohexane-1,3-diol]		0.49	
10 to 100	61 ± 11	68 ± 36	1.12		C=C1/C(=C\C=C2/CCC[C@]3(C)[C@@H]([C@H](C)CN4CC[C@H](CC(F)F)C4)CC[C@@H]23)C[C@@H](O)C[C@@H]1O [Compound B036]		0.59	
1 to 10	161 ± 40	156 ± 15	0.97		C=C1/C(=C\C=C2/CCC[C@]3(C)[C@@H]([C@H](C)CN4CC[C@H](C(C)(F)F)C4)CC[C@@H]23)C[C@@H](O)[C@H](C)[C@@H]1O [Compound B029, (1R,2S,3S,Z)-5-(2-((1R,3aS,7aR,E)-1-((S)-1-((S)-3-(1,1-difluoroethyl)pyrrolidin-1-yl)propan-2-yl)-7a-methyloctahydro-4H-inden-4-ylidene)ethylidene)-2-methyl-4-methylenecyclohexane-1,3-diol]		0.31	
1 to 10	207 ± 59	317 ± 19	1.53		C=C1[C@H](O)CC(=C/C=C2\CCC[C@]3(C)[C@@H]([C@H](C)CN4CC[C@@H](CC(F)F)C4)CC[C@@H]23)C[C@H]1O [Compound B041, (1R,3R)-5-(2-((1R,3aS,7aR,E)-1-((S)-1-((S)-3-(2,2-difluoroethyl)pyrrolidin-1-yl)propan-2-yl)-7a-methyloctahydro-4H-inden-4-ylidene)ethylidene)-2-methylenecyclohexane-1,3-diol]		0.56	
100 to 1000	72 ± 11	38 ± 12	0.53		C[C@H](CN1CC[C@@H](CCC(F)F)C1)[C@H]1CC[C@H]2/C(=C/C=C3C[C@@H](O)C[C@H](O)C3)CCC[C@]12C [Compound B064, (1R,3R)-5-(2-((1R,3aS,7aR,E)-1-((S)-1-((R)-3-(3,3-difluoropropyl)pyrrolidin-1-yl)propan-2-yl)-7a-methyloctahydro-4H-inden-4-ylidene)ethylidene)cyclohexane-1,3-diol]			0.61
10 to 100	853 ± 89	495 ± 16		0.58	C=C1[C@H](O)CC(=C/C=C2\CCC[C@]3(C)[C@@H]([C@H](C)CN4CCCC(O)(C(F)F)C4)CC[C@@H]23)C[C@H]1O (single isomer, unassigned) [Compound C036b]			0.22
10 to 100	316 ± 84	529 ± 53	1.67		C[C@H](CN1CC[C@H](C(F)F)C1)[C@H]1CC[C@H]2/C(=C/C=C3C[C@@H](O)C[C@H](O)C3)CCC[C@]12C [Compound B022, (1R,3R)-5-(2-((1R,3aS,7aR,E)-1-((S)-1-((S)-3-(difluoromethyl)pyrrolidin-1-yl)propan-2-yl)-7a-methyloctahydro-4H-inden-4-ylidene)ethylidene)cyclohexane-1,3-diol]		0.47	
